Laboratory results from patent publication US20140128367A1, “CYCLOALKYL-FUSED TETRAHYDROQUINOLINES AS CRTH2 RECEPTOR MODULATORS” (Merck Sharp & Dohme Corp., priority 2011, published 2014).
Like-named read-outs stand apart in the source and are kept apart here.

Key:
[1] = target: T1, hCRTH2 (Homo sapiens, UniProt Q9Y5Y4); parameters: expressed in transfected cells; host or cells: HEK (human embryonic kidney) cell line expressing hCRTH2; conditions: Radioligand Binding Assay B, 0.7 nM [3H]PGD2, HEK-hCRTH2 membranes; rated A-D
T1 sequence (Q9Y5Y4 1-395): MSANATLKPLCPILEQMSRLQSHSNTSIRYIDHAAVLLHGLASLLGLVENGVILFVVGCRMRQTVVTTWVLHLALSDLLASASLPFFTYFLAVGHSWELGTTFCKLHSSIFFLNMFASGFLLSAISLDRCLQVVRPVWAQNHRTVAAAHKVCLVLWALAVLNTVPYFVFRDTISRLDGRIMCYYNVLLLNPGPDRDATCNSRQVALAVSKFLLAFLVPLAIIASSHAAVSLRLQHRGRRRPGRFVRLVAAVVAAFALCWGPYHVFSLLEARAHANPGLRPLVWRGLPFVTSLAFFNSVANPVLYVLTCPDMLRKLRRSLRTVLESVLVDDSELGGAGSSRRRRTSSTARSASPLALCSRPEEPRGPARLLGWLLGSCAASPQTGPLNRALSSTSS

[2] = target: T1, hCRTH2; experiment: biochemical; conditions: Radioligand Binding Assay A, 3.0 nM [3H]PGD2, HEK-hCRTH2 membranes

Ki [1] [nM] | Ki [2] [nM] | Compound
20.1 to 200 | – | O=C(O)CCC(=O)N(C1CC1)[C@@H]1c2ccc(F)cc2N(C(=O)c2ccccc2)[C@@H]2CCC[C@@H]21 (racemic) [16D, 4-{cyclopropyl[cis, cis-6-fluoro-4-(phenylcarbonyl)-2,3,3a,4,9,9a-hexahydro-1H-cyclopenta[b]quinolin-9-yl]amino}-4-oxobutanoic acid]
– | 2.4 | CCc1ccc(C(=O)N2c3cc(Cl)ccc3C(N(C(=O)CCC(=O)O)C3CCC3)C3CCCC32)cc1 (single isomer, unassigned) [17CQ, 4-[[cis, cis-6-chloro-4-(4-ethylbenzoyl)-2,3,3a,4,9,9a-hexahydro-1H-cyclopenta[b]quinolin-9-yl]cyclobutylamino]-4-oxobutanoic acid]
